Results on 28 compounds are retold here after PubChem BioAssay (NCI).

“And” between values parts separate entries of the source, which are not always exact repeats. Equal values may be shown once.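 Cells were grown in 96-well plates and exposed to each compound for 48 hours at five concentrations; endpoints were interpolated linearly between bracketing concentrations, or set to the highest concentration if not reached. GI50 is the concentration that inhibits growth by half. Definition used: TGI = concentration required for complete inhibition of growth.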 Bounds are passed on as bounds.

In one assay the test system is A549 NSCLC. Kind of assay: inhibition of tumour cell growth, NCI panel, 48 h.
As for `CCOC(=O)CCC1(C(=O)OCC)CCCCC1=O` (stereo unspecified), the TGI is over 100 µM.

`COC(=O)c1ccccc1NC(=O)C(=O)Cc1nc2c3c(ccc2[nH]c1=O)C(=O)c1ccccc1C3=O` registered a TGI of 62.1 µM.

On to `CCOC(=O)C(C)(C)Oc1ccc2c(-c3ccccc3)cc(=O)oc2c1`, for which the TGI is over 100 µM.

Compound `CCCC1C(=O)CCc2c(OC)ccc(OC)c21` (stereo unspecified) gave a TGI of over 100 µM.

The compound `NC(=O)NO.O.O.O.O.O.O.O.O.O.O.O.[Ge].[Ge].[Ge].[Ge].[Ge].[O]=[Ge].[O]=[Ge].[O]=[Ge].[O]=[Ge].[O]=[Ge][OH]` registered a TGI of over 100 µM.

`O=C(Nc1nc2ccc([N+](=O)[O-])cc2s1)C(=O)C(C1OC(=O)c2ccccc21)[N+](=O)[O-]` (stereo unspecified) yielded a TGI of over 100 µM.

With `CCC[CH2][Sn]([CH2]CCC)([S]c1cccc2cccnc12)[S]c1cccc2cccnc12`, the GI50 is 0.348 µM and the TGI was 1.34 µM.

As for `COC(=O)C1(C(C)C)CCc2c(OC)ccc(OC)c2C1=O` (stereo unspecified), the TGI is over 100 µM.

The next assay has as its system HOP-92 NSCLC. Kind of assay: inhibition of tumour cell growth, NCI panel, 48 h.
The compound `Cc1c(C(=O)CC(=O)C(=O)Nc2ccccc2C(F)(F)F)[n+](=O)c2ccccc2n1[O-]` showed a TGI of 60.1 µM.

Compound `Cc1nc2c(ccc3ncccc32)[nH]1` gave a TGI of over 100 µM.

Take `C1=C2/CC[C@H](Sc3ccccc3)C2C2(CCCCC/1)OCCO2` (stereo partly specified): the TGI was determined as 29.6 µM.

Take `O=C(CCc1nc(=S)[nH][nH]1)Nc1cc(Cl)c(Cl)cc1Cl`: the TGI is over 100 µM.

As for `CN(C)C(=S)N=C(Nc1ccccc1)Nc1ccccc1`, the TGI was over 100 µM.

Compound `Nc1ccccc1S(=O)(=O)N(CC(=O)O)c1ccccc1` displayed a TGI of over 100 µM.

Take `CC1(C)C(=O)/C=C\C(=O)C(C)(C)C2=CC=C(O2)C(C)(C)C(=O)/C=C\C(=O)C(C)(C)C2=CC=C1O2`: the TGI is over 100 µM.

`COc1ccccc1N1C(=O)C2c3[nH]c4ccccc4c3C3CCC(C(C)(C)C)CC3C2C1=O` (stereo unspecified) displayed a TGI of over 100 µM.

As to `Cc1cc(NS(=O)(=O)c2ccc(Nc3c4ccccc4nc4c(C(=O)N5CCN(CCOS(C)(=O)=O)CC5)cccc34)cc2)no1`, the TGI was over 100 µM.

As for `C=CCO[C@H]1CO[C@H]2[C@@H]1OC[C@@H]2Oc1ccc(Nc2ccnc(Nc3ccc(O[C@H]4CO[C@H]5[C@@H]4OC[C@@H]5OCC=C)c(Cl)c3)n2)cc1Cl`, the GI50 is 1.66 µM and the TGI is 3.3 µM.

As for `O=C(O)CCC(NC(=O)c1ccc(Nc2nc3ccccc3nc2-c2cccs2)cc1)C(=O)O` (stereo unspecified), the TGI was over 100 µM.

`COc1cc2ccnc([C@@H](OC(=O)c3ccccc3)c3ccc(OC)c(OC)c3OC)c2cc1OC` gave a TGI of over 100 µM.

`CCn1c(C)nn2c(=O)c3ccccc3nc2c1=O` yielded a TGI of over 100 µM.

As for `COC(=O)/C(C#N)=C1\NC(=O)c2ccccc21`, the TGI was over 100 µM.

In the case of `O=C(O)CCNCCCNCCC(=O)O`, the TGI is over 100 µM.

For the compound `CC(=O)[CH-]C(=O)c1ccccc1.CC(=O)[CH-]C(=O)c1ccccc1.CN(C)c1ccc([O-])cc1.CN(C)c1ccc([O-])cc1.Cl.[Ti+4]`, the GI50 is 14.9 µM and the TGI came out at 27.5 µM.

As to `NC1=NCCC1(c1ccccc1)c1ccccn1` (stereo unspecified), the TGI was over 100 µM.

On to `CCCCCCCCCCCC(=O)OCCOCCOCCOCCOCCOCc1ccccc1`, for which the TGI is over 100 µM.

In the case of `CCCCCCCCCCCCCC(=O)OC(/C=C/C(C)C)C(O)C(O)C(OC)C(=O)NC1CCCCN(C)C1=O` (stereo unspecified), the GI50 is over 49 µM and the TGI was over 49 µM.

On to `CCOC(=O)CCC1(C(=O)OCC)CCCCC1=O` (stereo unspecified), for which the TGI is over 100 µM.

For the compound `COC(=O)c1ccccc1NC(=O)C(=O)Cc1nc2c3c(ccc2[nH]c1=O)C(=O)c1ccccc1C3=O`, the TGI was determined as 92.9 µM.

Compound `NC(=O)NO.O.O.O.O.O.O.O.O.O.O.O.[Ge].[Ge].[Ge].[Ge].[Ge].[O]=[Ge].[O]=[Ge].[O]=[Ge].[O]=[Ge].[O]=[Ge][OH]` yielded a TGI of over 100 µM.

As for `O=C(Nc1nc2ccc([N+](=O)[O-])cc2s1)C(=O)C(C1OC(=O)c2ccccc21)[N+](=O)[O-]` (stereo unspecified), the TGI was 82.9 µM.

The subject of the next assay is TK-10 renal. Kind of assay: inhibition of tumour cell growth, NCI panel, 48 h.
Turning to `Cc1c(C(=O)CC(=O)C(=O)Nc2ccccc2C(F)(F)F)[n+](=O)c2ccccc2n1[O-]`, the TGI is over 100 µM.

`Cc1cc(N(CCC#N)CCC#N)ccc1N=Nc1ccc(S(N)(=O)=O)cc1`: the TGI was over 100 µM.

In turn, `Cc1nc2c(ccc3ncccc32)[nH]1` registered a TGI of over 100 µM.

With `C1=C2/CC[C@H](Sc3ccccc3)C2C2(CCCCC/1)OCCO2` (stereo partly specified), the TGI was over 100 µM.

As for `O=C(CCc1nc(=S)[nH][nH]1)Nc1cc(Cl)c(Cl)cc1Cl`, the TGI was over 100 µM.

With `CN(C)C(=S)N=C(Nc1ccccc1)Nc1ccccc1`, the TGI is over 100 µM.

The compound `Nc1ccccc1S(=O)(=O)N(CC(=O)O)c1ccccc1` registered a TGI of over 100 µM.

In turn, `CC1(C)C(=O)/C=C\C(=O)C(C)(C)C2=CC=C(O2)C(C)(C)C(=O)/C=C\C(=O)C(C)(C)C2=CC=C1O2` returned a TGI of over 100 µM.

The compound `Cc1cc(NS(=O)(=O)c2ccc(Nc3c4ccccc4nc4c(C(=O)N5CCN(CCOS(C)(=O)=O)CC5)cccc34)cc2)no1` yielded a TGI of over 100 µM.

Regarding `C=CCO[C@H]1CO[C@H]2[C@@H]1OC[C@@H]2Oc1ccc(Nc2ccnc(Nc3ccc(O[C@H]4CO[C@H]5[C@@H]4OC[C@@H]5OCC=C)c(Cl)c3)n2)cc1Cl`, the GI50 is 1.86 µM and the TGI came out at 3.63 µM.

Turning to `O=C(O)CCC(NC(=O)c1ccc(Nc2nc3ccccc3nc2-c2cccs2)cc1)C(=O)O` (stereo unspecified), the TGI is over 100 µM.

Compound `COc1cc2ccnc([C@@H](OC(=O)c3ccccc3)c3ccc(OC)c(OC)c3OC)c2cc1OC` had a TGI of over 100 µM.

For `CCn1c(C)nn2c(=O)c3ccccc3nc2c1=O`, the TGI was over 100 µM.

Consider `COC(=O)/C(C#N)=C1\NC(=O)c2ccccc21`, for which the TGI was over 100 µM.

As for `O=C(O)CCNCCCNCCC(=O)O`, the TGI was over 100 µM.

Regarding `CC(=O)[CH-]C(=O)c1ccccc1.CC(=O)[CH-]C(=O)c1ccccc1.CN(C)c1ccc([O-])cc1.CN(C)c1ccc([O-])cc1.Cl.[Ti+4]`, the GI50 is 71.6 µM and the TGI was over 100 µM.

The compound `NC1=NCCC1(c1ccccc1)c1ccccn1` (stereo unspecified) came in with a TGI of over 100 µM.

The compound `CCCCCCCCCCCC(=O)OCCOCCOCCOCCOCCOCc1ccccc1` gave a TGI of over 100 µM.

For the compound `CCCCCCCCCCCCCC(=O)OC(/C=C/C(C)C)C(O)C(O)C(OC)C(=O)NC1CCCCN(C)C1=O` (stereo unspecified), the GI50 was over 49 µM; the TGI is 32.5 µM and > 49 µM.

In turn, `CCOC(=O)CCC1(C(=O)OCC)CCCCC1=O` (stereo unspecified) had a TGI of over 100 µM.

In turn, `COC(=O)c1ccccc1NC(=O)C(=O)Cc1nc2c3c(ccc2[nH]c1=O)C(=O)c1ccccc1C3=O` showed a TGI of 96.4 µM.

The compound `CCOC(=O)C(C)(C)Oc1ccc2c(-c3ccccc3)cc(=O)oc2c1` gave a TGI of over 100 µM.

The compound `CCCC1C(=O)CCc2c(OC)ccc(OC)c21` (stereo unspecified) had a TGI of over 100 µM.

As for `NC(=O)NO.O.O.O.O.O.O.O.O.O.O.O.[Ge].[Ge].[Ge].[Ge].[Ge].[O]=[Ge].[O]=[Ge].[O]=[Ge].[O]=[Ge].[O]=[Ge][OH]`, the TGI is over 100 µM.

As to `O=C(Nc1nc2ccc([N+](=O)[O-])cc2s1)C(=O)C(C1OC(=O)c2ccccc21)[N+](=O)[O-]` (stereo unspecified), the TGI is over 100 µM.

`CCC[CH2][Sn]([CH2]CCC)([S]c1cccc2cccnc12)[S]c1cccc2cccnc12`: the GI50 is 0.249 µM and the TGI was determined as 0.552 µM.

In turn, `COC(=O)C1(C(C)C)CCc2c(OC)ccc(OC)c2C1=O` (stereo unspecified) showed a TGI of over 100 µM.
